Experimental data reported in ChEMBL document CHEMBL5154705, “Discovery and mechanistic study of thiazole-4-acylsulfonamide derivatives as potent and orally active ChemR23 inhibitors with a long-acting effect in cynomolgus monkeys” (Bioorg Med Chem, 2022).

What was measured:
Format in all cases: ADME, organism-based, Macaca fascicularis
[1] = Drug concentration in cynomolgus monkey plasma at 1 mg/kg, po after 8 hrs
[2] = Cmax in cynomolgus monkey at 0.3 to 1 mg/kg, po; set-up: route po; settings: in vivo, dose 0.3-1 mg/kg
[3] = Tmax in cynomolgus monkey at 0.3 to 1 mg/kg, po; settings: in vivo, dose 0.3-1 mg/kg
[4] = Half life in cynomolgus monkey at 0.3 to 1 mg/kg, po; settings: in vivo, dose 0.3-1 mg/kg
[5] = AUC(0 to infinity) in cynomolgus monkey at 0.3 to 1 mg/kg, po; set-up: route po; settings: in vivo, dose 0.3-1 mg/kg
[6] = MRT in cynomolgus monkey at 0.3 to 1 mg/kg, po; settings: in vivo, dose 0.3-1 mg/kg
[7] = Cmax in cynomolgus monkey at 0.3 mg/kg, po; set-up: dose 0.3 mg/kg, route po; settings: in vivo
[8] = Drug concentration in cynomolgus monkey plasma at 0.3 mg/kg, po after 8 hrs
[9] = Tmax in cynomolgus monkey at 0.3 mg/kg, po; settings: in vivo
[10] = Half life in cynomolgus monkey at 0.3 mg/kg, po; settings: in vivo
[11] = AUC(0 to infinity) in cynomolgus monkey at 0.3 mg/kg, po; set-up: time infinity, dose 0.3 mg/kg, route po; settings: in vivo
[12] = MRT in cynomolgus monkey at 0.3 mg/kg, po; settings: in vivo
[13] = Drug concentration in plasma of cynomolgus monkey at 30 mg/kg, po after 4 hrs
[14] = Drug concentration in plasma of cynomolgus monkey at 30 mg/kg, po after 6 hrs
[15] = Drug concentration in plasma of cynomolgus monkey at 30 mg/kg, po after 8 hrs

With `Cc1ccc(-c2nc(=O)o[nH]2)c(-c2ccc([C@@H](C)N(CC3CC3)c3nc(C(=O)NS(=O)(=O)C4CC4)c(C4CC4)s3)cc2)c1` the concentration at 8 h [1] was 2580 ng/mL, the Cmax [2] was 6960 ng/mL and the Tmax [3] was 2.7 h. For the same compound, the half-life [4] was 3.1 h, the AUC(0-inf) [5] was 53700 ng·h/mL and the MRT [6] was 6 h. The Cmax [7] was 1370 ng/mL, the concentration at 8 h [8] was 403 ng/mL and the Tmax [9] was 3.3 h. It also gave a half-life [10] of 3.3 h, an AUC(0-inf) [11] of 10200 ng·h/mL and an MRT [12] of 5.4 h. For the same compound, the concentration at 4 h [13] was 332 µM, the concentration at 6 h [14] was 233 µM and the concentration at 8 h [15] was 177 µM.
